Legend:
AKT3 = AKT3 (Homo sapiens, UniProt Q9Y243); experiment: Kinase profiling; type: binding; settings: read-out: % Ctrl @ 1000 nM
BLK = BLK (Homo sapiens, UniProt P51451); experiment: Kinase profiling; type: binding; settings: read-out: % Ctrl @ 1000 nM
BRK = BRK (Homo sapiens, UniProt Q13882); experiment: Kinase profiling; type: binding; settings: read-out: % Ctrl @ 1000 nM
CDK4 = CDK4 (Homo sapiens, UniProt P11802); experiment: Kinase profiling; type: binding; settings: read-out: % Ctrl @ 1000 nM
CDKL1 = CDKL1 (Homo sapiens, UniProt Q00532); experiment: Kinase profiling; type: binding; settings: read-out: % Ctrl @ 1000 nM
CDKL3 = CDKL3 (Homo sapiens, UniProt Q8IVW4); experiment: Kinase profiling; type: binding; settings: read-out: % Ctrl @ 1000 nM
CDKL3, sequence (Q8IVW4 whole entry): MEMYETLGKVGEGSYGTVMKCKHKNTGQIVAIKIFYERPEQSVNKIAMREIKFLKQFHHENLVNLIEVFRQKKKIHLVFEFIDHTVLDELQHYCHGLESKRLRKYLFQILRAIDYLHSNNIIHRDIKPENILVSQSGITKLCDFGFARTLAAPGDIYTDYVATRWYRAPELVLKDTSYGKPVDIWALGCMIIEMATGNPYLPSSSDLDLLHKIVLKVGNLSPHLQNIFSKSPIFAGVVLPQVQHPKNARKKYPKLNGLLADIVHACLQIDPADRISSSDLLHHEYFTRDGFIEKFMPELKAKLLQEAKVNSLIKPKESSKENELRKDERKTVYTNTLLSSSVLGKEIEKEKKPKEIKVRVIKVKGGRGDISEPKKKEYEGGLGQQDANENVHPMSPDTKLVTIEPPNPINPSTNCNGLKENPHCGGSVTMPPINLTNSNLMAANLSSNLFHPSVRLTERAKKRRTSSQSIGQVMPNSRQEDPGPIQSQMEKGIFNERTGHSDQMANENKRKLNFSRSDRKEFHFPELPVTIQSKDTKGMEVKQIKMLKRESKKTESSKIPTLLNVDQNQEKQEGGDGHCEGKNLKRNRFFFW

CLK4 = CLK4 (Homo sapiens, UniProt Q9HAZ1); experiment: Kinase profiling; type: binding; settings: read-out: % Ctrl @ 1000 nM
CLK4, sequence (Q9HAZ1 whole entry): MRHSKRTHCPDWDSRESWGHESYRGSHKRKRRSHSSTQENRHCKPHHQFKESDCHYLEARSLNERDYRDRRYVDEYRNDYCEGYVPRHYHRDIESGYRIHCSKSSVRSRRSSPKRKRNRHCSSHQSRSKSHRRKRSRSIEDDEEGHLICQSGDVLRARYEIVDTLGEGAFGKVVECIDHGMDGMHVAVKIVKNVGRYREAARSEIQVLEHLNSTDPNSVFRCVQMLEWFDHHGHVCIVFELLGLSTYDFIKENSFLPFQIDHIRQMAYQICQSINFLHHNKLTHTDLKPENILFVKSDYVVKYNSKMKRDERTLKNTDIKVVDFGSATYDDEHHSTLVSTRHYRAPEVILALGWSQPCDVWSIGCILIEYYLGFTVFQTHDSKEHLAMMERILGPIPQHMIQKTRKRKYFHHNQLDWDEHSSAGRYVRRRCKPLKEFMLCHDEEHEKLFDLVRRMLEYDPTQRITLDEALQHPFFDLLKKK

EPHA7 = EPHA7 (Homo sapiens, UniProt Q15375); experiment: Kinase profiling; type: binding; settings: read-out: % Ctrl @ 1000 nM
EPHA7, sequence (Q15375 28-998): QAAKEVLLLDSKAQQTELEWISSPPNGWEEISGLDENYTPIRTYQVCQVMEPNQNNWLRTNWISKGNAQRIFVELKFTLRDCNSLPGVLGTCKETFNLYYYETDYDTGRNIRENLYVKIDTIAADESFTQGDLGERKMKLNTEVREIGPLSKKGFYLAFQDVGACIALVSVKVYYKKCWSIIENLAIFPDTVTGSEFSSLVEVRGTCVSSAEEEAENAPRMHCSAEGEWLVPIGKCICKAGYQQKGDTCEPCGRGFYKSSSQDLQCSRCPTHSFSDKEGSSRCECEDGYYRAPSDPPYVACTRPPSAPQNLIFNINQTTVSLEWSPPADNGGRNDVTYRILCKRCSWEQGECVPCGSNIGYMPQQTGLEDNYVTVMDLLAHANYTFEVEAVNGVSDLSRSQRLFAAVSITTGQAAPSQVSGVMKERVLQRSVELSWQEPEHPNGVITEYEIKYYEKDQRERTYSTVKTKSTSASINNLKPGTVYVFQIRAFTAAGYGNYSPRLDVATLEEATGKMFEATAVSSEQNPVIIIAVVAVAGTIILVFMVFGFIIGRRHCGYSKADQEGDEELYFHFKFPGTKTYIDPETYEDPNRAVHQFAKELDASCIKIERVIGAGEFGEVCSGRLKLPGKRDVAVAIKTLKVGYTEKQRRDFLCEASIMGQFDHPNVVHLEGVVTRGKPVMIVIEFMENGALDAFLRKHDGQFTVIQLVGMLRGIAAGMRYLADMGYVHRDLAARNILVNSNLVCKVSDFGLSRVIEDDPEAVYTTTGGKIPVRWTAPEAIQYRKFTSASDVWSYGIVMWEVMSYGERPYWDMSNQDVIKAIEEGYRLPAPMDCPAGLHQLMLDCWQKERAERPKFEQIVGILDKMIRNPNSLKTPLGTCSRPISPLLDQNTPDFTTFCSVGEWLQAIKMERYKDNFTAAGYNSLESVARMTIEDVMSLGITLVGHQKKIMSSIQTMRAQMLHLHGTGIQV

FLT3 (ITD, F691L) = experiment: Kinase profiling; type: binding
IRAK1 = IRAK1 (Homo sapiens, UniProt P51617); experiment: Kinase profiling; type: binding; settings: read-out: % Ctrl @ 1000 nM
KIT = KIT (Homo sapiens, UniProt P10721); experiment: Kinase profiling; type: binding; settings: read-out: % Ctrl @ 1000 nM
KIT, sequence (P10721 26-976): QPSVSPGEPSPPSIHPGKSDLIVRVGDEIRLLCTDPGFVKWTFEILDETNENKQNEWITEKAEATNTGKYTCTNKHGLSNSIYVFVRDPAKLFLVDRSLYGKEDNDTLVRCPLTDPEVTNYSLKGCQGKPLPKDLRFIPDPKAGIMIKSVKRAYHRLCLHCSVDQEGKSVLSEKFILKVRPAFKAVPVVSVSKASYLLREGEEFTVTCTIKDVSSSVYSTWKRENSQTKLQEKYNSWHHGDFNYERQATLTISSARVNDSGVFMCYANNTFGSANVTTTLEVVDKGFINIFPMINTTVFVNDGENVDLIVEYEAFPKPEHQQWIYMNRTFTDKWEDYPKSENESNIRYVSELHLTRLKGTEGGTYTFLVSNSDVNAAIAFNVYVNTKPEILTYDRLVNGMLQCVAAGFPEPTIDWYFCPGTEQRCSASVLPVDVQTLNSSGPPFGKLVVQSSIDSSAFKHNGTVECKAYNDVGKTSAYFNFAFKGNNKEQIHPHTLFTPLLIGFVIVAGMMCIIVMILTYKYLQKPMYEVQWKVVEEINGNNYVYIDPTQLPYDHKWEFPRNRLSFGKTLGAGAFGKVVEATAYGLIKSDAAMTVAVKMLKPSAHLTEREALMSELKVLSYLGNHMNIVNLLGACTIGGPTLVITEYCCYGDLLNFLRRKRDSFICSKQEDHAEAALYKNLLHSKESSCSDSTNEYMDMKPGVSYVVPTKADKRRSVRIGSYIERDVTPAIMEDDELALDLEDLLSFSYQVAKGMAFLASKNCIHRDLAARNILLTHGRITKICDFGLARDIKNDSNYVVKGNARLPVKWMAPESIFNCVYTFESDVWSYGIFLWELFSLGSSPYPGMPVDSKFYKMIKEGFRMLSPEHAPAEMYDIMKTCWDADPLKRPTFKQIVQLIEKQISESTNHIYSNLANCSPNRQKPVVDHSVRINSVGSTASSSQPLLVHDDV

KIT (D816H) = KIT (D816H) (Homo sapiens, UniProt P10721, D816H); experiment: Kinase profiling; type: binding; settings: read-out: % Ctrl @ 1000 nM
KIT (D816H), sequence (P10721 26-976 D816H): as the sequence (P10721 26-976) above, with D791H counted along it

LIMK2 = LIMK2 (Homo sapiens, UniProt P53671); experiment: Kinase profiling; type: binding; settings: read-out: % Ctrl @ 1000 nM
MST1R = molecular target: T1, MST1R (Homo sapiens, UniProt Q04912); experiment: Kinase profiling; type: binding; settings: read-out: % Ctrl @ 1000 nM
T1 construct: T7 phage fusion (stated for most kinases of the panel only); made in house; host or cells: T7 phage in E. coli (BL21-derived) or HEK-293 cells

p38-beta = p38-beta (Homo sapiens, UniProt Q15759); experiment: Kinase profiling; type: binding; settings: read-out: % Ctrl @ 1000 nM
PAK7 = PAK7 (Homo sapiens, UniProt Q9P286); experiment: Kinase profiling; type: binding; settings: read-out: % Ctrl @ 1000 nM
PCTK3 = PCTK3 (Homo sapiens, UniProt Q07002); experiment: Kinase profiling; type: binding; settings: read-out: % Ctrl @ 1000 nM
PHKG2 = PHKG2 (Homo sapiens, UniProt P15735); experiment: Kinase profiling; type: binding; settings: read-out: % Ctrl @ 1000 nM
PIK3C2B = PIK3C2B (Homo sapiens, UniProt O00750); experiment: Kinase profiling; type: binding; settings: read-out: % Ctrl @ 1000 nM
PIK3CA (E542K) = PIK3CA (E542K) (Homo sapiens, UniProt P42336, E542K); experiment: Kinase profiling; type: binding; settings: read-out: % Ctrl @ 1000 nM
PIK3CA (E545K) = PIK3CA (E545K) (Homo sapiens, UniProt P42336, E545K); experiment: Kinase profiling; type: binding; settings: read-out: % Ctrl @ 1000 nM
PIK3CA (H1047L) = PIK3CA (H1047L) (Homo sapiens, UniProt P42336, H1047L); experiment: Kinase profiling; type: binding; settings: read-out: % Ctrl @ 1000 nM
PKNB (M.tuberculosis) = PKNB (M.tuberculosis) (Mycobacterium tuberculosis, UniProt P9WI81); experiment: Kinase profiling; type: binding; settings: read-out: % Ctrl @ 1000 nM
PLK4 = PLK4 (Homo sapiens, UniProt O00444); experiment: Kinase profiling; type: binding; settings: read-out: % Ctrl @ 1000 nM
PRKCE = PRKCE (Homo sapiens, UniProt Q02156); experiment: Kinase profiling; type: binding; settings: read-out: % Ctrl @ 1000 nM
PRKCQ = PRKCQ (Homo sapiens, UniProt Q04759); experiment: Kinase profiling; type: binding; settings: read-out: % Ctrl @ 1000 nM
PRKCQ, sequence (Q04759 whole entry): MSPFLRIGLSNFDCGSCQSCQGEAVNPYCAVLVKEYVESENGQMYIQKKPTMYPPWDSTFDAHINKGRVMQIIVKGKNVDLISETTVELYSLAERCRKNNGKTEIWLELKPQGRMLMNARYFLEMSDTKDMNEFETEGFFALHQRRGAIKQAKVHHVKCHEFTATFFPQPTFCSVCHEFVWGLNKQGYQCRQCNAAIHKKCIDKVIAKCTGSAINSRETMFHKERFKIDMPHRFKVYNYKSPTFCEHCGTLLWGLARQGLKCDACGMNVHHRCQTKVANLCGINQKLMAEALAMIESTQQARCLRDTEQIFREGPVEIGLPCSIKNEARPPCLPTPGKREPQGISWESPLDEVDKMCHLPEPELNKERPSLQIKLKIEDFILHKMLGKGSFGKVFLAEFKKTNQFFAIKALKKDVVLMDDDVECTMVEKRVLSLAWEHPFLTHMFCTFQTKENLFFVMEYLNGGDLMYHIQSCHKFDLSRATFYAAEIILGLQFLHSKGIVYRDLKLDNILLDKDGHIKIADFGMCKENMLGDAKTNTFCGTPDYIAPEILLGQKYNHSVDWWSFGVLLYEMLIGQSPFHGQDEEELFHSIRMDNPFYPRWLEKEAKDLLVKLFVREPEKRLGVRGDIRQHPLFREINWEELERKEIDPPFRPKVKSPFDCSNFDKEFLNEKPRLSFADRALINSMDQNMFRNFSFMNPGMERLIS

[1] = molecular target: RPS6KA5 (Kin.Dom.1-N-terminal) (Homo sapiens, UniProt O75582); experiment: Kinase profiling; type: binding; settings: read-out: % Ctrl @ 1000 nM
[2] = molecular target: RSK3 (Kin.Dom.1-N-terminal) (Homo sapiens, UniProt Q15349); experiment: Kinase profiling; type: binding; settings: read-out: % Ctrl @ 1000 nM
RSK3 (Kin.Dom.1-N-terminal), sequence (Q15349 59-318 limits assumed): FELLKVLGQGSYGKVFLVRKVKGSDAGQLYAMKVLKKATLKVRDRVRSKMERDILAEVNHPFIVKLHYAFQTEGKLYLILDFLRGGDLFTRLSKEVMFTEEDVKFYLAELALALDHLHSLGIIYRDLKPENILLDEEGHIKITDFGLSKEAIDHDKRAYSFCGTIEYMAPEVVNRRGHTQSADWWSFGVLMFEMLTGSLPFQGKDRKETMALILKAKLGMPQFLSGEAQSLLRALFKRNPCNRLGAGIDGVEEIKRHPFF

STK39 = STK39 (Homo sapiens, UniProt Q9UEW8); experiment: Kinase profiling; type: binding; settings: read-out: % Ctrl @ 1000 nM
TEC = TEC (Homo sapiens, UniProt P42680); experiment: Kinase profiling; type: binding; settings: read-out: % Ctrl @ 1000 nM
TGFBR1 = TGFBR1 (Homo sapiens, UniProt P36897); experiment: Kinase profiling; type: binding; settings: read-out: % Ctrl @ 1000 nM
TGFBR1, sequence (P36897 34-503): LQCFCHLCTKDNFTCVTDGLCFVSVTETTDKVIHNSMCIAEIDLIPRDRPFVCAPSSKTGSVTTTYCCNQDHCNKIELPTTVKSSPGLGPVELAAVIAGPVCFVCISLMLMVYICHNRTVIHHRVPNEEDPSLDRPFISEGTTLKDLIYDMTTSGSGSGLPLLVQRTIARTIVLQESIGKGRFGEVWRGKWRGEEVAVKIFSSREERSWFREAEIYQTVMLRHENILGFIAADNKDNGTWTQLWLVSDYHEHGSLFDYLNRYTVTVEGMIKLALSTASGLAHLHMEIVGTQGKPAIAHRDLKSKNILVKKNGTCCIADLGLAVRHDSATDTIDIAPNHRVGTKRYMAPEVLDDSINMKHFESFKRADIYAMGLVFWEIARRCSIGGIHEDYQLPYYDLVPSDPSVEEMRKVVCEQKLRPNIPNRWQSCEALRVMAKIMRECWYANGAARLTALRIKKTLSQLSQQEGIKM

TNK2 = TNK2 (Homo sapiens, UniProt Q07912); experiment: Kinase profiling; type: binding; settings: read-out: % Ctrl @ 1000 nM
[3] = molecular target: TYK2 (JH1domain-catalytic) (Homo sapiens, UniProt P29597); experiment: Kinase profiling; type: binding; settings: read-out: % Ctrl @ 1000 nM
TYK2 (JH1domain-catalytic), sequence (P29597 897-1176 limits assumed): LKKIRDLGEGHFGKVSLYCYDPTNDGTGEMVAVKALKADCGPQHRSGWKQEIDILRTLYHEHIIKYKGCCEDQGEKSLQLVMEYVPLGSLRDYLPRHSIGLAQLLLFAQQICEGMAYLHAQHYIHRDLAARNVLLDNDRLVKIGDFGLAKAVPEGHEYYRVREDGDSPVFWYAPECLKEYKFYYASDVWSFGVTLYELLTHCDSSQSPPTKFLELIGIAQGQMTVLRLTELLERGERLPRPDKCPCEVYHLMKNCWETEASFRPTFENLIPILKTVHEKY

ZAK = ZAK (Homo sapiens, UniProt Q9NYL2); experiment: Kinase profiling; type: binding; settings: read-out: % Ctrl @ 1000 nM
RAW264.7 cells = experiment: Proliferation of RAW264.7 cells (CTG assay); type: cell-based; settings: RAW264.7 (CSF-1 independent, negative control), 3 days
Protocol: Two syngeneic cell lines M-NFS-60 and RAW264.7 and engineered BaF3 hCSFIR cell line were starved and then tested with CBT-102 and other test articles for 3 days in the temperature of 37° C., 5% CO2 and 95% humidity. The cell viability was then detected using CTG assay. The software of GraphPad Prism was used to calculate IC50.
CSF-1 dependent mouse myeloid M-NFS-60 cells were employed as target cells while a CSF-1 independent cell line Raw 264.7 was used as a negative control. In addition to CBT-102, the study also included 3 CSF-1R inhibitors: GW2580, BLZ945 and Pexidartinib.

With `Cc1cc(Oc2cc(NC(=O)C3CC3)ncn2)ccc1NC(=O)Nc1ccc(Cl)c(C(F)(F)F)c1` [CBT-102] the remaining activity at 1 µM (AKT3) was 97%, the remaining activity at 1 µM (BLK) was 48% and the remaining activity at 1 µM (BRK) was 89%. It also gave a remaining activity at 1 µM (CDK4) of 100%, a remaining activity at 1 µM (CDKL1) of 65% and a remaining activity at 1 µM (CDKL3) of 4.3%. The remaining activity at 1 µM (CLK4) was 95%, the remaining activity at 1 µM (EPHA7) was 4.1% and the “% Ctrl @ 1000 nM” value (FLT3 (ITD, F691L)) was 86%. For the same molecule, the remaining activity at 1 µM (IRAK1) was 75%, the remaining activity at 1 µM (KIT) was 0% and the remaining activity at 1 µM (KIT (D816H)) was 37%. The remaining activity at 1 µM (LIMK2) was 92%, the remaining activity at 1 µM (MST1R) was 89% and the remaining activity at 1 µM (p38-beta) was 0%. The remaining activity at 1 µM (PAK7) was 91%, the remaining activity at 1 µM (PCTK3) was 84% and the remaining activity at 1 µM (PHKG2) was 87%. It also gave a remaining activity at 1 µM (PIK3C2B) of 100%, a remaining activity at 1 µM (PIK3CA (E542K)) of 96% and a remaining activity at 1 µM (PIK3CA (E545K)) of 94%. The remaining activity at 1 µM (PIK3CA (H1047L)) was 100%, the remaining activity at 1 µM (PKNB (M.tuberculosis)) was 100% and the remaining activity at 1 µM (PLK4) was 98%. For the same molecule, the remaining activity at 1 µM (PRKCE) was 99%, the remaining activity at 1 µM (PRKCQ) was 95% and the remaining activity at 1 µM [1] was 100%. For the same molecule, the remaining activity at 1 µM [2] was 98%, the remaining activity at 1 µM (STK39) was 100% and the remaining activity at 1 µM (TEC) was 92%. For the same molecule, the remaining activity at 1 µM (TGFBR1) was 100%, the remaining activity at 1 µM (TNK2) was 93% and the remaining activity at 1 µM [3] was 5.6%. It also gave a remaining activity at 1 µM (ZAK) of 5.5%, an IC50 (RAW264.7 cells; Mus musculus, 72 h) of 22.9 µM and a Max inh. (RAW264.7 cells) of 95.44%.

Reference: patent US20220088016A1, “CANCER TREATMENT USING MULTI-TARGETED KINASE INHIBITOR IN COMBINATION OF PROTEIN KINASE BIOMARKERS” (ZHEJIANG CROWNMAB BIOTECH CO. LTD., priority 2019, published 2022)
